Laboratory results from article PMC10891067, “A co-assembly platform engaging macrophage scavenger receptor A for lysosome-targeting protein degradation” (Nature Communications, 2024).
Each block holds one molecule with its values, some of them ahead of it. Residues, ends and D or L forms follow the SMILES beside them. *: point of attachment. Fmoc = O=C(OCC1c2ccccc2-c2ccccc21)*; Ahx = NCCCCCC(=O)O

Legend:
IL-17A [1] = target: T1, IL-17A (Mus musculus, UniProt Q62386); test: Lysosome inhibition assay (LPT, BafA1); format: cell-based; design: host or cells: added exogenously to RAW264.7, SR-A-KO RAW264.7, U-118 MG, DC 2.4 or HaCaT cells; conditions: RAW264.7, 0.5 μg/ml IL-17A + 50 μM 17A-Lytaca, 6 h
T1 sequence (Q62386 26-158): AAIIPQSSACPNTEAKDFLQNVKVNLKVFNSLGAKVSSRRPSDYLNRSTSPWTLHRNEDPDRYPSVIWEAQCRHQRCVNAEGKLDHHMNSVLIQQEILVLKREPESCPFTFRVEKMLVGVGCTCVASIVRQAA
Experimental: To confirm the involvement of lysosomes, RAW264.7 cells were pretreated with PBS, LPT (0.1 mg/ml), or BafA1 (100 nM) for 2 h at 37 °C. […] The accumulation of IL-17A in the cells was then measured via flow cytometry, following the aforementioned procedure.

[2] = Serum clearance kinetics of 17A-Lytaca relevant peptides; format: in vivo, mouse; conditions: healthy mice, i.p. Cy-labeled 17A-Lytaca (Cy5-fm-17Abp 15 mg/kg, Cy3-fm-SRAL 22 mg/kg), IVIS, n = 3
Experimental: Serum samples were collected at 0, 1, 2, 3, 4, 8, 12, and 24 h for analysis. The fluorescence intensity of serum was measured with the in vivo imaging system (IVIS) spectrum.

[3] = In vivo localization and clearance assay of 17A-Lytaca (IVIS); design: species or system mouse; conditions: psoriasis mice, i.p. Cy-labeled 17A-Lytaca (Cy5-fm-17Abp 5 mg/kg, Cy7-fm-SRAL 7.3 mg/kg)
Experimental: Fluorescence imaging in both the Cy5 and Cy7 channels was conducted using the in vivo imaging system (IVIS Spectrum) at 4, 8, 12, 24, and 48 h post-injection. Further, for biodistribution assessment, mice were sacrificed at 6 h post-injection, and skins along with major organs (heart, liver, spleen, lung, and kidney) were removed for ex vivo fluorescence imaging.

IL-17A [4] = target: T1, IL-17A; test: IL-17A binding competition experiment with IL-17RA (IL-17A uptake); format: cell-based; design: host or cells: added exogenously to RAW264.7, SR-A-KO RAW264.7, U-118 MG, DC 2.4 or HaCaT cells; conditions: RAW264.7, with fi-SRAL and fi-17Abp mixture and IL-17A
Experimental: To verify the binding of the IL-17A by mixed fi-17Abp and fi-SRAL, RAW264.7 cells were treated with 0.5 μg/ml IL-17A, 50 μM mixed fi-SRAL and fi-17Abp and IL-17RA at 0, 0.0125, 0.025, 0.05, 0.1, or 0.2 μg/ml for 6 h. Then, flow cytometry analysis was used to measure the intracellular IL-17A level according to the procedure mentioned above.

Molecule: CO/C1=C\C(C)=C\[C@@H](C)[C@@H](O)[C@@H](C)C/C(C)=C/C=C/[C@H](OC)[C@@H]([C@@H](C)[C@@H](O)[C@H](C)[C@@]2(O)C[C@@H](O)[C@H](C)[C@@H](C(C)C)O2)OC1=O [BafA1, Bafilomycin A1]
- IL-17A accumulation in cells with lysosome inhibitor (in words) (IL-17A [1]): significantly higher IL-17A accumulation in cells

Molecule: CC(=O)N[C@@H](CC(C)C)C(=O)N[C@@H](CC(C)C)C(=O)N[C@H](C=O)CCCNC(=N)N [LPT, Leupeptin]
- IL-17A accumulation in cells with lysosome inhibitor (in words) (IL-17A [1]): significantly higher IL-17A accumulation in cells

Molecule: C[C@H](NC(=O)[C@H](CCC(=O)O)NC(=O)[C@H](C)NC(=O)[C@H](CCC(=O)O)NC(=O)[C@H](C)NC(=O)[C@H](CCC(=O)O)NC(=O)[C@H](C)NC(=O)[C@H](CCC(=O)O)NC(=O)[C@H](C)NC(=O)[C@H](CCC(=O)O)NC(=O)[C@H](C)NC(=O)[C@H](CCC(=O)O)NC(=O)[C@H](C)NC(=O)[C@H](CCC(=O)O)NC(=O)[C@H](C)NC(=O)[C@H](CCC(=O)O)NC(=O)[C@H](C)NC(=O)[C@H](CCC(=O)O)NC(=O)[C@H](C)NC(=O)[C@H](CCC(=O)O)NC(=O)[C@H](C)NC(=O)[C@H](CCC(=O)O)NC(=O)[C@H](C)NC(=O)[C@H](CCC(=O)O)NC(=O)[C@H](C)NC(=O)[C@H](CCC(=O)O)NC(=O)[C@H](C)NC(=O)[C@H](CCC(=O)O)NC(=O)[C@H](C)NC(=O)[C@H](CCC(=O)O)NC(=O)CCCCCNC(=O)OCC1c2ccccc2-c2ccccc21)C(N)=O [fm-SRAL] ({Fmoc-Ahx}-EAEAEAEAEAEAEAEAEAEAEAEAEAEAEA-NH2)
- Time up to which the serum fluorescent signal was detectable [2]: ≤ 8 h
- Time up to which the peptide remained detectable in vivo [3]: 48 h

- Effect on intracellular IL-17A signal (in words) (IL-17A [4]): concentration-dependent attenuation
Molecule: IL-17RA: IL-17A receptor protein used as competitor for the 17Abp binding domain of IL-17A
